Experimental data reported in PMC9645260, “Small-molecule inhibitors of P-Rex guanine-nucleotide exchange factors” (Small GTPases, 2022).

How the values were obtained:
Type in all cases: biochemical
[1] = molecular target: T1, P-Rex1 DH domain (Homo sapiens, UniProt Q8TCU6); assay: Liposome-based GEF activity assay, isolated P-Rex1 DH domain; details: 10 µM, 200 nM DH domain, without PIP3; read-out: inhibition of constitutive Rac-GEF activity of isolated P-Rex1 DH domain
T1 construct: 200 nM iDH EE-P-Rex1 DH domain (compounds 11–29); made in house; host or cells: Sf9 cells (baculovirus)
Procedure: Full-length N-terminally EE-tagged P-Rex1, P-Rex2, the P-Rex1 DH and DHPH domains and the P-Rex2 DH domain were produced in Sf9 cells using baculoviral transduction and were purified using anti-EE beads, as previously described. Briefly, frozen pellets from 500 ml of Sf9 culture infected with P-Rex expressing high-titre baculovirus were resuspended in ice-cold lysis Sf9-cell lysis buffer 2 (1x PBS, 1% Triton X-100, 5 mM EGTA, 1 mM EDTA, 25 mM NaF, 20 mM β-glycerophosphate, 1 mM DTT, 100 µM PMSF, 10 μg/ml each of leupeptin, pepstatin A, aprotinin and antipain) for 5 min and then ultracentrifuged at 118,000 × g for 1 h at 4°C. Supernatants were incubated with pre-washed anti-EE beads for 90 min on ice with end-over-end rotation. Beads were washed 4 times in wash buffer (2x PBS, 0.1% Triton X-100, 1 mM EGTA) and 5 times in elution buffer (1x PBS, 10% glycerol, 1 mM DTT, 1 mM EGTA, 0.01% Na azide), and protein was eluted by incubation with elution buffer containing Ac-EEYMPME peptide as described above. Protein was concentrated in a YM-100 Centricon (Millipore) at 5000 × g at 4°C. Fatty acid-free BSA and glycerol were added to final concentrations of 2 mg/ml and 50%, respectively. Protein concentration and purity were determined by coomassie staining of SDS-PAGE gels. Full-length Tiam1, expressed in and purified from Sf9 cells, was a kind gift from Angeliki Malliri, CRUK Manchester Institute, UK. […]
(§1) Liposome-based GEF activity assays were carried out essentially as described, except that GEFs were incubated with inhibitor compounds prior to the assay. […] Small GTPases were isolated using anti-EE antibody-coupled Sepharose beads or glutathione Sepharose beads, as appropriate, by incubation on ice for 90 min with end-over-end rotation, four washes in ice-cold wash buffer and resuspension of beads in Ultima Gold scintillation fluid (Perkin Elmer). ^35S-GTPγS incorporation was assessed by scintillation counting (Packard 1600TR, Liquid Scintillation Analyser).

[2] = molecular target: T2, ITSN1 (DHPH) (Homo sapiens, UniProt Q15811); assay: Liposome-based GEF activity assay, ITSN1; details: 10 µM, 100 nM ITSN1 DHPH
T2 construct: The ITSN1 DHPH domains and Ect2 DHPH domains, produced in and purified from bacteria; host or cells: bacteria
T2 sequence (Q15811 1229-1580 limits assumed): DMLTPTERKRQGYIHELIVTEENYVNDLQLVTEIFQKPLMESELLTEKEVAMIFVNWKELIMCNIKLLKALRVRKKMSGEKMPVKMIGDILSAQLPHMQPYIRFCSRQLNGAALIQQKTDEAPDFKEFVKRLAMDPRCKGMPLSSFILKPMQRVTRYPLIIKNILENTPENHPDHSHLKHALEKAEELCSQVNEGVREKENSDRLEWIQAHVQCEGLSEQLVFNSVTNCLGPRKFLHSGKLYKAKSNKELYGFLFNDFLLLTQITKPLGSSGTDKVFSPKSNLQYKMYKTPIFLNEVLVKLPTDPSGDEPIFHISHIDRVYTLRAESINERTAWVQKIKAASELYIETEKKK
Procedure: (§2) Full-length N-terminally EE-tagged P-Rex1, P-Rex2, the P-Rex1 DH and DHPH domains and the P-Rex2 DH domain were produced in Sf9 cells using baculoviral transduction and were purified using anti-EE beads, as previously described. Briefly, frozen pellets from 500 ml of Sf9 culture infected with P-Rex expressing high-titre baculovirus were resuspended in ice-cold lysis Sf9-cell lysis buffer 2 (1x PBS, 1% Triton X-100, 5 mM EGTA, 1 mM EDTA, 25 mM NaF, 20 mM β-glycerophosphate, 1 mM DTT, 100 µM PMSF, 10 μg/ml each of leupeptin, pepstatin A, aprotinin and antipain) for 5 min and then ultracentrifuged at 118,000 × g for 1 h at 4°C. Supernatants were incubated with pre-washed anti-EE beads for 90 min on ice with end-over-end rotation. […] Protein concentration and purity were determined by coomassie staining of SDS-PAGE gels. […]
as §1

[3] = molecular target: T3, DOCK10 (DHR2) (Homo sapiens, UniProt Q96BY6); assay: Liposome-based GEF activity assay, DOCK10; details: 10 µM, 765 nM DOCK10 DHR2
T3 construct: The DOCK10 DHR2 domain, produced in and purified from bacteria; host or cells: bacteria
T3 sequence (Q96BY6 1690-2150 limits assumed): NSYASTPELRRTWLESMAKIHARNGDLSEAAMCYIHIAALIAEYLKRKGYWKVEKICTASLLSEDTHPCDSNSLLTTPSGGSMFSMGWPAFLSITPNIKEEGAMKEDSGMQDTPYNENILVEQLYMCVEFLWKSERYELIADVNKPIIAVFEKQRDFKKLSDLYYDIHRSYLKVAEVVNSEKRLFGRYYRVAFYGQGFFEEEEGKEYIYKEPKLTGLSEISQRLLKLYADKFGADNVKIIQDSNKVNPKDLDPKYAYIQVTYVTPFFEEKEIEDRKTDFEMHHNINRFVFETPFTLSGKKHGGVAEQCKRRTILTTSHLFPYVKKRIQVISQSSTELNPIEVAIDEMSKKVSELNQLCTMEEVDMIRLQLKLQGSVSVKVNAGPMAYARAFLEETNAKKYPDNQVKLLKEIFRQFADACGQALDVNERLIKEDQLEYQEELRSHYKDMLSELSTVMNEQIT
Procedure: as §2, §1

T1 sequence (Q8TCU6 49-240 limits assumed): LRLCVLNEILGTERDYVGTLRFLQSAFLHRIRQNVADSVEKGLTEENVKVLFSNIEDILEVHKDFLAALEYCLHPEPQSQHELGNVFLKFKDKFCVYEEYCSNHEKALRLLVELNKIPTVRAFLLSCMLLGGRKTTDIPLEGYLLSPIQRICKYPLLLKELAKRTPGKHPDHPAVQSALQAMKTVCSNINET

COc1ccc(-c2[nH]nc3c2C(c2ccc(-c4ccc(Cl)cc4)o2)C(C#N)=C(N)O3)cc1 (stereo not drawn) [PREX-in1, 6-amino-4-[5-(4-chlorophenyl)-2-furyl]-3-(4-methoxyphenyl)-2,4-dihydropyrano[2,3-c]pyrazole-5-carbonitrile]
inhibition at 10 µM [1]: 98% | effect on GEF activity of ITSN1 [2]: none of the other GEFs were affected | effect on GEF activity of DOCK10 [3]: none of the other GEFs were affected
